Source: patent US8461305B2, “L-fucose α1→6 specific lectin” (J-Oil Mills, Inc., priority 2008, dated 2013)

Columns and labels:
[1] = frontal affinity chromatography (FAC), association constant to PA sugar chains having other L-fucose; format: binding; settings: for association constant Ka: 25 degrees C.
Method in brief: (§1)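 Lectin coupled via primary amines to NHS-activated sepharose in a miniature column, run in TBS (pH 7.4) at 0.125 ml/min and 25 degrees C. PA sugar chains (3.75 nM or 7.5 nM) applied in excess, with elution monitored by fluorescence (ex 310/em 380 nm). Ka calculated from front-end delay (V−Vo) versus PA rhamnose and effective ligand amount (Bt).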

[2] = frontal affinity chromatography (FAC), association constant to PA sugar chains without L-fucose; format: binding
Method in brief: as §1

binding to non-L-fucose α1→6 sugar chain ([1]; FAC): not detected at all
binding to sugar chain not having L-fucose ([2]; FAC): not detected at all
Substance: Lepista sordida lectin [LSL, novel lectin purified from the mushroom Lepista sordida]
association constant Ka ([1]; Sugar chain No. 419): <1000 M⁻¹
association constant Ka ([1]; Sugar chain No. 420): <1000 M⁻¹
association constant Ka ([1]; Sugar chain No. 718): <1000 M⁻¹
association constant Ka ([1]; Sugar chain No. 719): <1000 M⁻¹
association constant Ka ([1]; Sugar chain No. 720): <1000 M⁻¹
association constant Ka ([1]; Sugar chain No. 721): <1000 M⁻¹
association constant Ka ([1]; Sugar chain No. 722): <1000 M⁻¹
association constant Ka ([1]; Sugar chain No. 723): <1000 M⁻¹
association constant Ka ([1]; Sugar chain No. 726): <1000 M⁻¹
association constant Ka ([1]; Sugar chain No. 727): <1000 M⁻¹
association constant Ka ([1]; Sugar chain No. 728 (as listed in Table 5/12)): <1000 M⁻¹
association constant Ka ([1]; Sugar chain No. 729): <1000 M⁻¹
association constant Ka ([1]; Sugar chain No. 730): <1000 M⁻¹
association constant Ka ([1]; Sugar chain No. 731): <1000 M⁻¹
association constant Ka ([1]; Sugar chain No. 739): <1000 M⁻¹
association constant Ka ([1]; Sugar chain No. 909): <1000 M⁻¹
association constant Ka ([1]; Sugar chain No. 910): <1000 M⁻¹
association constant Ka ([1]; Sugar chain No. 931): <1000 M⁻¹
association constant Ka ([1]; Sugar chain No. 932): <1000 M⁻¹
association constant Ka ([1]; Sugar chain No. 933): <1000 M⁻¹
association constant Ka ([2]; Sugar chain No. 001, sugar chain not having L-fucose): <1000 M⁻¹
association constant Ka ([2]; Sugar chain No. 002, sugar chain not having L-fucose): <1000 M⁻¹
association constant Ka ([2]; Sugar chain No. 003, sugar chain not having L-fucose): <1000 M⁻¹
association constant Ka ([2]; Sugar chain No. 004, sugar chain not having L-fucose): <1000 M⁻¹
association constant Ka ([2]; Sugar chain No. 005, sugar chain not having L-fucose): <1000 M⁻¹
association constant Ka ([2]; Sugar chain No. 006, sugar chain not having L-fucose): <1000 M⁻¹
association constant Ka ([2]; Sugar chain No. 007, sugar chain not having L-fucose): <1000 M⁻¹
association constant Ka ([2]; Sugar chain No. 008, sugar chain not having L-fucose): <1000 M⁻¹
association constant Ka ([2]; Sugar chain No. 009, sugar chain not having L-fucose): <1000 M⁻¹
association constant Ka ([2]; Sugar chain No. 010, sugar chain not having L-fucose): <1000 M⁻¹
association constant Ka ([2]; Sugar chain No. 011, sugar chain not having L-fucose): <1000 M⁻¹
association constant Ka ([2]; Sugar chain No. 012, sugar chain not having L-fucose): <1000 M⁻¹
association constant Ka ([2]; Sugar chain No. 013, sugar chain not having L-fucose): <1000 M⁻¹
association constant Ka ([2]; Sugar chain No. 014, sugar chain not having L-fucose): <1000 M⁻¹
association constant Ka ([2]; Sugar chain No. 101, sugar chain not having L-fucose): <1000 M⁻¹
association constant Ka ([2]; Sugar chain No. 103, sugar chain not having L-fucose): <1000 M⁻¹
association constant Ka ([2]; Sugar chain No. 104, sugar chain not having L-fucose): <1000 M⁻¹
association constant Ka ([2]; Sugar chain No. 105, sugar chain not having L-fucose): <1000 M⁻¹
association constant Ka ([2]; Sugar chain No. 107, sugar chain not having L-fucose): <1000 M⁻¹
association constant Ka ([2]; Sugar chain No. 108, sugar chain not having L-fucose): <1000 M⁻¹
association constant Ka ([2]; Sugar chain No. 301, sugar chain not having L-fucose): <1000 M⁻¹
association constant Ka ([2]; Sugar chain No. 304, sugar chain not having L-fucose): <1000 M⁻¹
association constant Ka ([2]; Sugar chain No. 305, sugar chain not having L-fucose): <1000 M⁻¹
association constant Ka ([2]; Sugar chain No. 307, sugar chain not having L-fucose): <1000 M⁻¹
association constant Ka ([2]; Sugar chain No. 308, sugar chain not having L-fucose): <1000 M⁻¹
association constant Ka ([2]; Sugar chain No. 313, sugar chain not having L-fucose): <1000 M⁻¹
association constant Ka ([2]; Sugar chain No. 314, sugar chain not having L-fucose): <1000 M⁻¹
association constant Ka ([2]; Sugar chain No. 323, sugar chain not having L-fucose): <1000 M⁻¹
association constant Ka ([2]; Sugar chain No. 501, sugar chain not having L-fucose): <1000 M⁻¹
association constant Ka ([2]; Sugar chain No. 502, sugar chain not having L-fucose): <1000 M⁻¹
association constant Ka ([2]; Sugar chain No. 503, sugar chain not having L-fucose): <1000 M⁻¹
association constant Ka ([2]; Sugar chain No. 504, sugar chain not having L-fucose): <1000 M⁻¹
association constant Ka ([2]; Sugar chain No. 701, sugar chain not having L-fucose): <1000 M⁻¹
association constant Ka ([2]; Sugar chain No. 702, sugar chain not having L-fucose): <1000 M⁻¹
association constant Ka ([2]; Sugar chain No. 703, sugar chain not having L-fucose): <1000 M⁻¹
association constant Ka ([2]; Sugar chain No. 704, sugar chain not having L-fucose): <1000 M⁻¹
association constant Ka ([2]; Sugar chain No. 705, sugar chain not having L-fucose): <1000 M⁻¹
association constant Ka ([2]; Sugar chain No. 706, sugar chain not having L-fucose): <1000 M⁻¹
association constant Ka ([2]; Sugar chain No. 707, sugar chain not having L-fucose): <1000 M⁻¹
association constant Ka ([2]; Sugar chain No. 708, sugar chain not having L-fucose): <1000 M⁻¹
association constant Ka ([2]; Sugar chain No. 709, sugar chain not having L-fucose): <1000 M⁻¹
association constant Ka ([2]; Sugar chain No. 710, sugar chain not having L-fucose): <1000 M⁻¹
association constant Ka ([2]; Sugar chain No. 711, sugar chain not having L-fucose): <1000 M⁻¹
association constant Ka ([2]; Sugar chain No. 712, sugar chain not having L-fucose): <1000 M⁻¹
association constant Ka ([2]; Sugar chain No. 713, sugar chain not having L-fucose): <1000 M⁻¹
association constant Ka ([2]; Sugar chain No. 715, sugar chain not having L-fucose): <1000 M⁻¹
association constant Ka ([2]; Sugar chain No. 716, sugar chain not having L-fucose): <1000 M⁻¹
association constant Ka ([2]; Sugar chain No. 717, sugar chain not having L-fucose): <1000 M⁻¹
association constant Ka ([2]; Sugar chain No. 724, sugar chain not having L-fucose): <1000 M⁻¹
association constant Ka ([2]; Sugar chain No. 725, sugar chain not having L-fucose): <1000 M⁻¹
association constant Ka ([2]; Sugar chain No. 728, sugar chain not having L-fucose): <1000 M⁻¹
association constant Ka ([2]; Sugar chain No. 732, sugar chain not having L-fucose): <1000 M⁻¹
association constant Ka ([2]; Sugar chain No. 733, sugar chain not having L-fucose): <1000 M⁻¹
association constant Ka ([2]; Sugar chain No. 734, sugar chain not having L-fucose): <1000 M⁻¹
association constant Ka ([2]; Sugar chain No. 735, sugar chain not having L-fucose): <1000 M⁻¹
association constant Ka ([2]; Sugar chain No. 736, sugar chain not having L-fucose): <1000 M⁻¹
association constant Ka ([2]; Sugar chain No. 737, sugar chain not having L-fucose): <1000 M⁻¹
association constant Ka ([2]; Sugar chain No. 738, sugar chain not having L-fucose): <1000 M⁻¹
association constant Ka ([2]; Sugar chain No. 901, sugar chain not having L-fucose): <1000 M⁻¹
association constant Ka ([2]; Sugar chain No. 902, sugar chain not having L-fucose): <1000 M⁻¹
association constant Ka ([2]; Sugar chain No. 903, sugar chain not having L-fucose): <1000 M⁻¹
association constant Ka ([2]; Sugar chain No. 905, sugar chain not having L-fucose): <1000 M⁻¹
association constant Ka ([2]; Sugar chain No. 907, sugar chain not having L-fucose): <1000 M⁻¹
